Data as given in patent publication US20230271949A1, “GLP-1R MODULATING COMPOUNDS” (ASCLETIS BIOSCIENCE CO., LTD., priority 2022, published 2023).

Legend:
[1] = biological target: T1, GLP-1R (Homo sapiens, UniProt P43220); experiment: GLP-1R agonist cAMP stimulation assay (HTRF cAMP); assay type: cell-based; conditions: HEK293 cell line expressing GLP-1 target; HTRF cAMP agonist mode, 30 min at RT
Method in brief: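 Read-out was HTRF (665/615 ratio), interpolated onto a cAMP standard curve and normalised to DMSO (0%) and maximal GLP-1(7-37) reference (100%) wells. Assay: GLP-1R cells at 1.0×E5/mL incubated with compound dilution series (3-fold, 10 points) for 30 min at room temperature before 60 min detection.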

[2] = biological target: T1, GLP-1R; experiment: Tag-lite binding assay (competition with GLP-1 receptors red agonist); conditions: for IC50: HEK293 GLP-1 cells labeled with SNAP-Lumi4-Tb, red agonist 4.917 nM, 23° C., 2 h; for Ki: calculated from sample IC50 and red agonist Kd
Method: B. Tag-Lite Binding Assay
The cell line was constructed by WuXi.
10) Dispense cells into cell plate (1.8 M cells/well in 2 ml medium of 6-well plate, total 4 wells).
Second Day: Tag-Lite Binding Assay
3) The cell culture medium is removed from the 6-well plate and then 1 mL of Tag-lite SNAP-Lumi4-Tb diluted in Tag-lite labeling medium are added gently on the cells.
7) The testing compounds and reference compound are serially diluted with 3-fold, 10 points using Echo, then transfer 100 nL compounds to the assay plate.
8) Add the labeled cells to each well according to the plate map, 10000 cells/10 uL/well. Centrifuge the plate at 1000 rpm for 1 min.
9) Incubate the plate at 23° C., 30 min.
10) Add 50 nL of red agonist (final conc.: 4.917 nM) to destination plate using Echo.
11) Incubate the plate at 23° C. for 2 h.
12) Read the plate on an HTRF® compatible reader (at 665 nm and 620 nm).
% Inhibition=100%−(Ratio−LC)/(HC−LC)*100%
HC: The average ratio of adding DMSO wells
LC: The average ratio of adding the top concentration of reference compounds wells
b) The “log (inhibitor) vs. response—Variable slope” model in GraphPad Prism 5.0 was used to fit the dose-response curve of each sample. The sample concentration (x) and its corresponding % Inhibition data (y) were substituted into the model. The sample concentration (abscissa) was x=log(x) transformed. The transformed xy was used as the sample curve to obtain the IC50.
c) Calculate the sample Ki according to the sample IC50 and red agonist Kd. S in the formula is the actual used concentration of red agonist.

T1 sequence (P43220 24-463): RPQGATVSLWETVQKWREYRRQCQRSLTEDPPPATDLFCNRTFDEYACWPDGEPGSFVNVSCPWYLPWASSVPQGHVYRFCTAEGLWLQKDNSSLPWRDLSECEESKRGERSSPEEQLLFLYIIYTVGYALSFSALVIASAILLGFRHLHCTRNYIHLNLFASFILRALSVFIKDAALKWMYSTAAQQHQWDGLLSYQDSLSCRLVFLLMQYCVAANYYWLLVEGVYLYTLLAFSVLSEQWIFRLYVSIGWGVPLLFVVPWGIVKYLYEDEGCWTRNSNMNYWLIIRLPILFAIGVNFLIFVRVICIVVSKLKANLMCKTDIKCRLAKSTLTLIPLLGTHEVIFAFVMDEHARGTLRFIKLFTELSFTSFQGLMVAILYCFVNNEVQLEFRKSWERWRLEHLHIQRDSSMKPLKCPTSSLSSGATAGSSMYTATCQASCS

| Compound | EC50 [1] [nM] | IC50 [2] [nM] | Ki [2] [nM] |
| --- | --- | --- | --- |
| Cc1n[nH]c2c(F)cc(NC(=O)c3ccc4c(c3)nc(CN3CCC(c5cccc(OCc6ccc(C#N)cc6F)n5)CC3)n4C[C@@H]3CCO3)cc12 [Compound 126] | 0.18 | 1400 | 806 |
| Cc1n[nH]c2c(F)cc(C(=O)Nc3ccc4c(c3)nc(Cc3c(F)cc(-c5cccc6c5O[C@](C)(c5ccc(Cl)cn5)O6)cc3F)n4CC3CCO3)cc12 (stereo partly drawn) [Compound 387] | 0.86 | 346 | 205 |
| Cc1n[nH]c2ccc(NC(=O)c3ccc4c(c3)nc(CN3CC=C(c5cccc(OCc6ccc(Cl)cc6F)n5)CC3)n4C[C@@H]3CCO3)cc12 [Compound 3, (S)-2-((6-((4-chloro-2-fluorobenzyl)oxy)-3′,6′-dihydro-[2,4′-bipyridin]-1′(2′H)-yl)methyl)-N-(3-methyl-1H-indazol-5-yl)-1-(oxetan-2-ylmethyl)-1H-benzo[d]imidazole-5-carboxamide] | 0.56 | 1750 | 876 |
| O=C(Nc1ccc2[nH]c(=O)[nH]c2c1)c1ccc2c(c1)nc(CN1CCC(c3cccc(OCc4ccc(Cl)cc4F)n3)CC1)n2C[C@@H]1CCO1 [Compound 90] | 1.59 | 1900 | 950 |
| Cc1n[nH]c2ccc(C(=O)Nc3ccc4c(c3)nc(CN3CC=C(c5cccc(OCc6ccc(Cl)cn6)n5)CC3)n4C[C@@H]3CCO3)cc12 [Compound 391] | 0.91 | 116 | 70.3 |
| Cc1n[nH]c2ccc(C(=O)Nc3ccc4c(c3)nc(CN3CCC(c5cccc6c5OC(C)(c5ccc(Cl)cc5F)O6)CC3)n4CC3CCO3)cc12 (stereo not drawn) [Compound 342] | 0.91 | 140 | 72.2 |
| Cc1n[nH]c2c(C)cc(C(=O)Nc3ccc4c(c3)nc(C3CC35CCN(c3cccc(OCc6ccc(Cl)cc6F)n3)CC5)n4CC3CCO3)cc12 (stereo not drawn) [Compound 245] | 0.51 | 146 | 82.3 |
| O=C(Nc1ccc2c(c1)C1(CC1)C(=O)N2)c1ccc2c(c1)nc(CN1CCC(c3cccc(OCc4ccc(Cl)cn4)n3)CC1)n2C[C@@H]1CCO1 [Compound 101] | 0.75 | 1280 | 641 |
| Cc1n[nH]c2c(C)cc(C(=O)Nc3ccc4c(c3)nc(CN3CC=C(c5cccc(OCc6ccc(C#N)cc6F)n5)CC3)n4C[C@@H]3CCO3)cc12 [Compound 229] | 0.21 | 122 | 75.9 |
| CCn1cncc1Cn1c(Cc2c(F)cc(-c3cccc4c3O[C@@](C)(c3ccc(Cl)cn3)O4)cc2F)nc2cc(NC(=O)c3cc(F)c4[nH]nc(C)c4c3)ccc21 [Compound 411] | 0.33 | 120 | 72.6 |
| O=C(NCC(=O)N1C[C@H](O)C[C@H]1C(=O)O)c1ccc2c(c1)nc(CN1CCC(c3cccc(OCc4ccc(Cl)cc4F)n3)CC1)n2C[C@@H]1CCO1 [Compound 2, (2S,4R)-1-((2-((4-(6-((4-chloro-2-fluorobenzyl)oxy)pyridin-2-yl)piperidin-1-yl)methyl)-1-(((S)-oxetan-2-yl)methyl)-1H-benzo[d]imidazole-5-carbonyl)glycyl)-4-hydroxypyrrolidine-2-carboxylic acid] | 0.32 | 345 | 165 |
| Cc1n[nH]c2c(F)cc(C(=O)Nc3ccc4c(c3)nc(C3CC35CCN(c3cccc(OCc6ccc(Cl)cc6F)n3)CC5)n4CC3CCO3)cc12 (stereo not drawn) [Compound 244] | 0.33 | 189 | 110 |
| Cc1cc(NC(=O)c2ccc3c(c2)nc(CN2CCC(c4cccc(OCc5ccc(Cl)cc5F)n4)CC2)n3C[C@@H]2CCO2)cc2c1NC(=O)C21CC1 [Compound 105] | 0.78 | 1940 | 1000 |
| CCn1cncc1Cn1c(Cc2c(F)cc(-c3cccc4c3OC(C)(c3ccc(Cl)cn3)O4)cc2F)nc2cc(NC(=O)c3cc(F)c4[nH]nc(C)c4c3)ccc21 (stereo not drawn) [Compound 409] | 0.42 | 486 | 237 |
| Cc1n[nH]c2c(F)cc(NC(=O)c3ccc4c(c3)nc(CN3CC=C(c5cccc(OCc6ccc(Cl)cc6F)n5)CC3)n4C[C@@H]3CCO3)cc12 [Compound 153] | 0.59 | 1450 | 873 |
| Cc1cc(NC(=O)c2ccc3c(c2)nc(CN2CC=C(c4cccc(OCc5ccc(C#N)cc5F)n4)CC2)n3C[C@@H]2CCO2)cc2c1NC(=O)C21CC1 [Compound 178] | 0.19 | 875 | 430 |
| Cc1n[nH]c2c(C)cc(NC(=O)c3ccc4c(c3)nc(CN3CC=C(c5cccc6c5O[C@](C)(c5ccc(Cl)cn5)O6)CC3)n4CC3CCO3)cc12 (stereo partly drawn) [Compound 383] | 1.92 | 1480 | 899 |
| Cc1n[nH]c2c(F)cc(C(=O)Nc3ccc4c(c3)nc(CN3CCC(c5cccc6c5OC(C)(c5ccc(Cl)cc5F)O6)CC3)n4CC3CCO3)cc12 (stereo not drawn) [Compound 340] | 0.28 | 123 | 88.5 |
